These results are taken from publication PMC9050923, “6,N^2-Diaryl-1,3,5-triazine-2,4-diamines: synthesis, antiproliferative activity and 3D-QSAR modeling” (RSC Advances, 2020).

The structures appear in SMILES notation. Read-outs that look alike come from different tables or passages of the source.

The subject of one data set is MCF-7. Nature of the data set: MTT assay, MCF-7 breast cancer cells. It counts as cell-based. The note with it: Homo sapiens; for viability at 10 µM: MCF7, 10 μM, 72 h after the treatment, mean of three independent experiments, read-out: Percentage of cell viability MCF-7; for GI50: MCF7, 72 h, mean of three independent experiments ± SEM. Summed up:
(§1)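 Cells seeded 24 h at 37 °C, 5% CO2, then treated 72 h with a concentration range; single-point screen at 10 μM gave % viability. MTT (0.5 mg/mL, 4 h), DMSO-solubilised, A570; GI50 from sigmoidal curves, mean of three experiments.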
For orientation: Tetrazolium assays rely on reduction of a dye to a coloured formazan, in cell work by metabolically active cells.

The next data set concerns MDA-MB231. Kind of data set: MTT assay, MDA-MB231 breast cancer cells. The class given is cell-based. The note with it: Homo sapiens, MDA-MB-231; for viability at 10 µM: 72 h after the treatment, mean of three independent experiments, read-out: Percentage of cell viability MDA-MB231. Summed up:
as §1

A further data set relates to SKBR-3. Kind of data set: MTT assay, SKBR-3 breast cancer cells. The class given is cell-based. The note with it: Homo sapiens, SK-BR-3, MTT; for viability at 10 µM: 72 h after the treatment, mean of three independent experiments, read-out: Percentage of cell viability SKBR-3; for GI50: 72 h, mean of three independent experiments ± SEM. The gist of the method:
as §1

A further data set deals with MCF-10A. Kind of data set: MTT assay, MCF-10A normal breast cells. The class given is cell-based. The conditions noted are these: Homo sapiens, 72 h, read-out: GI50 (μM) ± SEM MCF-10A. As for the experimental part: All the compounds, selected for determination of GI50 values against MDA-MB231 cells, were also used for the experiments with MCF-10A normal breast cells.
The cytotoxic activity of 6,N^2-diaryl-1,3,5-triazine-2,4-diamines (1–126) was evaluated against three breast carcinoma cell lines (MDA-MB231, SKBR-3, and MCF-7) and normal breast cell line (MCF-10A) by MTT assay.[22] All cells were obtained from the American Type Culture Collection and were grown in 10% fetal bovine serum and 1% pen-strep antibiotic supplemented media (DMEM for MDA-MB231 and SKBR-3, RPMI for MCF-7, and MEGM for MCF-10A). For MTT assay, 20 000 to 75 000 cells per mL (based on the doubling time for each cell line) were seeded in 96 well plates and incubated for 24 h at 37 °C in 5% CO2 incubator. Then, compounds at different concentrations were added followed by the incubation at 37 °C for 72 h. After that, MTT solution (0.5 mg mL^−1) was added and the plates were incubated for another 4 h. The supernatant was then discarded and 100 μL of DMSO was added to each well. The plates were then read by Tecan NanoQuant (model: infinite m200 pro) plate reader and absorbance was measured at 570 nm. GI50 values were calculated using sigmoidal concentration–response curves (see ESI ^†) generated using the GraphPad Prism 7 program. Three independent experiments were carried out and the data were represented as mean of the three experiments.

Setting [1] is: −log[GI50], MDA-MB231, read-out: Experimental pGI50 (converted).
Setting [2] is: 72 h, MTT, mean of three independent experiments ± SEM, read-out: GI50 (μM) ± SEM MDA-MB231.

`Nc1nc(Nc2ccccc2Cl)nc(-c2ccccc2)n1` (hydrate or solvate) [Compound 4, N ^2-(2-Chlorophenyl)-6-phenyl-1,3,5-triazine-2,4-diamine] displayed a melting point of 82 to 84 °C.

Take `Cc1cccc(-c2nc(N)nc(Nc3ccc(F)cc3)n2)c1` (hydrate or solvate) [Compound 53, N ^2-(4-Fluorophenyl)-6-(3-methylphenyl)-1,3,5-triazine-2,4-diamine]: the melting point lay in the range of 138 to 139 °C.

In turn, `COc1ccc(Nc2nc(N)nc(-c3cccc(C)c3)n2)cc1` (hydrate or solvate) [Compound 57, N ^2-(4-Methoxyphenyl)-6-(3-methylphenyl)-1,3,5-triazine-2,4-diamine] showed a melting point of 150 to 152 °C.

The molecule `Cc1cccc(-c2nc(N)nc(Nc3ccc(C(C)C)cc3)n2)c1` (hydrate or solvate) [Compound 59, N ^2-(4-Isopropylphenyl)-6-(3-methylphenyl)-1,3,5-triazine-2,4-diamine] displayed a melting point of 134 to 136 °C.

`Nc1nc(Nc2ccccc2F)nc(-c2cccs2)n1` (hydrate or solvate) [Compound 116, N ^2-(2-Fluorophenyl)-6-(thiophen-2-yl)-1,3,5-triazine-2,4-diamine] had a melting point of 165 to 167 °C.

The molecule `COc1ccc(Nc2nc(N)nc(-c3cccs3)n2)cc1` (hydrate or solvate) [Compound 123, N ^2-(4-Methoxyphenyl)-6-(thiophen-2-yl)-1,3,5-triazine-2,4-diamine] came in with a melting point of 139 to 141 °C.

As to `Nc1nc(Nc2ccccc2F)nc(-c2ccccc2)n1` [Compound 2, N ^2-(2-Fluorophenyl)-6-phenyl-1,3,5-triazine-2,4-diamine], the melting point lay within 156 to 158 °C. In addition, in the data set on MCF-7, the viability at 10 µM was 99%. The viability at 10 µM in the data set with MDA-MB231 (MTT) is 82%. Moreover, the viability at 10 µM with SKBR-3 amounted to 83%.

For the molecule `Nc1nc(Nc2ccc(F)cc2)nc(-c2ccccc2)n1` [Compound 3, N ^2-(4-Fluorophenyl)-6-phenyl-1,3,5-triazine-2,4-diamine], the melting point lay within 172 to 174 °C. For the same molecule, the viability at 10 µM with MCF-7 came out at 100%. For the same molecule, in the data set on MDA-MB231 (MTT), the viability at 10 µM amounted to 81%. For the same molecule, the viability at 10 µM in the data set with SKBR-3 was 84%.

With `COc1ccc(Nc2nc(N)nc(-c3ccc(F)cc3)n2)cc1` [Compound 30, 6-(4-Fluorophenyl)-N^2-(4-methoxyphenyl)-1,3,5-triazine-2,4-diamine], the melting point was in the range of 158 to 160 °C. Moreover, the viability at 10 µM in the data set on MCF-7 was 92%. The viability at 10 µM in the data set on MDA-MB231 (MTT) was 74%. Further, in the data set on SKBR-3, the viability at 10 µM came to 90%.

`Nc1nc(Nc2ccccc2)nc(-c2ccc(Cl)cc2)n1` [Compound 34, 6-(4-Chlorophenyl)-N^2-phenyl-1,3,5-triazine-2,4-diamine] returned a melting point of 154 to 156 °C. Further, in the data set with MCF-7, the viability at 10 µM worked out at 100%. In addition, the viability at 10 µM in the data set on MDA-MB231 (MTT) is 81%. Besides, the viability at 10 µM in the data set with SKBR-3 was 100%.

`COc1ccc(Nc2nc(N)nc(-c3ccc(OC)cc3)n2)cc1` [Compound 71, N ^2,6-Bis(4-methoxyphenyl)-1,3,5-triazine-2,4-diamine] had a melting point of 163 to 165 °C. Besides, the viability at 10 µM in the data set on MCF-7 turned out to be 95%. Further, the viability at 10 µM with MDA-MB231 (MTT) turned out to be 56%. For the same molecule, the GI50 in the data set with MDA-MB231 (setting [1]) is 14.1 µM. The viability at 10 µM in the data set with SKBR-3 is 93%.

Turning to `Nc1nc(Nc2ccc(F)cc2)nc(-c2ccc(C(F)(F)F)cc2)n1` [Compound 84, N ^2-(4-Fluorophenyl)-6-(4-(trifluoromethyl)phenyl)-1,3,5-triazine-2,4-diamine], the melting point fell in the range of 150 to 152 °C. Also, in the data set on MCF-7, the viability at 10 µM is 100%. Besides, the viability at 10 µM in the data set with MDA-MB231 (MTT) was 95%. The viability at 10 µM in the data set on SKBR-3 amounted to 98%.

Consider `Nc1nc(Nc2ccc(F)cc2)nc(-c2ccc(OC(F)(F)F)cc2)n1` [Compound 91, N ^2-(4-Fluorophenyl)-6-(4-(trifluoromethoxy)phenyl)-1,3,5-triazine-2,4-diamine], for which the melting point lay within 139 to 140 °C. Also, the viability at 10 µM with MCF-7 is 100%. Further, in the data set on MDA-MB231 (MTT), the viability at 10 µM was found to be 53%. The viability at 10 µM in the data set with SKBR-3 amounted to 86%.

Regarding `CN(C)c1ccc(-c2nc(N)nc(Nc3ccccc3)n2)cc1` [Compound 100], the viability at 10 µM with MCF-7 came to 80%; in the data set on MDA-MB231 (MTT), 21%; in the data set on SKBR-3 it was 61%. The GI50 in the data set on MCF-7 is above 20 µM; with MDA-MB231 (setting [2]), 0.36 ± 0.07 µM; in the data set on MDA-MB231 (setting [1]) it was 0.363 µM; in the data set with SKBR-3 it was 4.19 ± 0.37 µM; with MCF-10A, above 25 µM.

Take `CN(C)c1ccc(-c2nc(N)nc(Nc3ccccc3F)n2)cc1` [Compound 101]: the viability at 10 µM with MCF-7 turned out to be 88%; in the data set with MDA-MB231 (MTT), 28%; in the data set with SKBR-3, 51%. Moreover, the GI50 in the data set on MCF-7 was above 20 µM; in the data set on MDA-MB231 (setting [2]), 0.06 ± 0.001 µM; with MDA-MB231 (setting [1]), 0.0603 µM; in the data set with SKBR-3 it was 0.29 ± 0.04 µM; with MCF-10A, above 25 µM.

As to `CN(C)c1ccc(-c2nc(N)nc(Nc3ccc(F)cc3)n2)cc1` [Compound 102], the results for the viability at 10 µM in the data set with MCF-7, with MDA-MB231 (MTT) and with SKBR-3 were 90%, 32% and 88%, respectively. In addition, the GI50 in the data set on MCF-7 is above 20 µM; in the data set on MDA-MB231 (setting [2]) it was 7.2 ± 0.94 µM; in the data set on MDA-MB231 (setting [1]) it was 7.24 µM; in the data set with SKBR-3, above 20 µM; in the data set with MCF-10A, above 25 µM.

On to `COc1ccccc1Nc1nc(N)nc(-c2ccc(N(C)C)cc2)n1` [Compound 103], for which the viability at 10 µM in the data set with MCF-7 amounted to 88%; in the data set on MDA-MB231 (MTT), 28%; with SKBR-3, 48%. The GI50 with MCF-7 is above 20 µM; in the data set on MDA-MB231 (setting [2]), 4.17 ± 0.33 µM; in the data set on MDA-MB231 (setting [1]), 4.17 µM; with SKBR-3, 3.63 ± 0.23 µM; with MCF-10A, above 25 µM.

Regarding `Nc1nc(Nc2ccccc2)nc(-c2ccc(OCc3ccccc3)cc2)n1` [Compound 110], the viability at 10 µM was 100% in the data set with MCF-7, 51% in the data set on MDA-MB231 (MTT) and 75% in the data set on SKBR-3. The GI50 with MCF-7 is above 20 µM; with MDA-MB231 (setting [2]), 13.4 ± 1.18 µM; in the data set with MDA-MB231 (setting [1]), 13.5 µM; in the data set with SKBR-3 it was above 20 µM; with MCF-10A, above 25 µM.

`Nc1nc(Nc2ccc(F)cc2)nc(-c2ccc(OCc3ccccc3)cc2)n1` [Compound 111, 6-(4-(Benzyloxy)phenyl)-N^2-(4-fluorophenyl)-1,3,5-triazine-2,4-diamine] returned a melting point of 177 to 179 °C. Also, the viability at 10 µM with MCF-7 is 89%. For the same molecule, the viability at 10 µM in the data set on MDA-MB231 (MTT) was 69%. Also, the viability at 10 µM in the data set with SKBR-3 was 84%.

As to `Nc1nc(Nc2ccc(Br)cc2)nc(-c2cccs2)n1` [Compound 120], the viability at 10 µM in the data set on MCF-7 was found to be 88%; in the data set on MDA-MB231 (MTT), 46%; in the data set on SKBR-3, 87%. Also, the GI50 is above 20 µM in the data set with MCF-7; 11.7 ± 1.39 µM in the data set on MDA-MB231 (setting [2]); 11.7 µM in the data set with MDA-MB231 (setting [1]); above 20 µM with SKBR-3; above 25 µM in the data set on MCF-10A.

Regarding `Cc1ccc(Nc2nc(N)nc(-c3cccs3)n2)cc1` [Compound 121], the figures for the viability at 10 µM in the data set on MCF-7, in the data set with MDA-MB231 (MTT) and in the data set on SKBR-3 were 97%, 49% and 95%, respectively. The GI50 with MCF-7 was above 20 µM; in the data set on MDA-MB231 (setting [2]), 13.9 ± 1.74 µM; in the data set on MDA-MB231 (setting [1]), 13.8 µM; in the data set on SKBR-3 it was above 20 µM; in the data set on MCF-10A, above 25 µM.

In turn, `COc1ccccc1Nc1nc(N)nc(-c2cccs2)n1` [Compound 122, N ^2-(2-Methoxyphenyl)-6-(thiophen-2-yl)-1,3,5-triazine-2,4-diamine] returned a melting point of 165 to 167 °C. Also, in the data set on MCF-7, the viability at 10 µM turned out to be 91%. In the data set with MDA-MB231 (MTT), the viability at 10 µM was determined as 78%. The viability at 10 µM with SKBR-3 was determined as 97%.

As usually defined, the melting point is the temperature of the solid-liquid transition. Usually viability stands for a read-out of living cells in per cent, often relative to untreated cells.
